# Test results taken from ChEMBL document CHEMBL1126225, “Potential mechanism-based inhibitors of proteolytic enzymes” (Bioorg Med Chem Lett, 1992).
# Experiments:
# [1] = molecular target: T1, Neutrophil elastase (Homo sapiens) (UniProt P08246); test: Compound was tested for the inhibition of human leukocyte elastase (HLE) by ratio of Kobs to that of KI
# T1 sequence (whole entry): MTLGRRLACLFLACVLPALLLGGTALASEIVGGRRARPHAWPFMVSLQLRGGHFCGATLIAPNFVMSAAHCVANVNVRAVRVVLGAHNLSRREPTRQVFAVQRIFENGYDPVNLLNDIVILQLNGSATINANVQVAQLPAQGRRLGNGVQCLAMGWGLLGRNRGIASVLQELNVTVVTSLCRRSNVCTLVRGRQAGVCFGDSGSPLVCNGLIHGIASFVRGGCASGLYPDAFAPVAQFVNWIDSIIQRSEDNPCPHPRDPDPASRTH
# [2] = molecular target: T1, Neutrophil elastase (Homo sapiens); test: Compound was tested for the inhibition of human leukocyte elastase (HLE) by ratio of Kobs to that of KI; Insoluble
# Neutrophil elastase = molecular target: T2, Neutrophil elastase (Homo sapiens, UniProt P08246); test: Compound was tested for the inhibition of human leukocyte elastase (HLE)
# T2 sequence (P08246 whole entry): T1 sequence (whole entry)
K obs / 1 [1] [M⁻¹ s⁻¹],SMILES,other results
420,CC(C)C[C@H](NC(=O)OCc1ccccc1)C(=O)CN1C(=O)c2ccccc2S1(=O)=O,
,CC(C)C[C@H](NC(=O)OCc1ccccc1)C(=O)CN1C(=O)c2ccccc2C1=O,K obs / 1 [2]: Insoluble
,CC(C)C[C@H](N)C(=O)CN1C(=O)c2ccccc2C1=O,Ki (Neutrophil elastase): 17.5 µM
3,CC(C)C[C@H](NC(=O)OCc1ccccc1)C(=O)CN1C(=O)CC(Cc2ccccc2)C1=O (stereo partly drawn),
45,CC(C)Cc1ccc(C(C)C(=O)CN2C(=O)CC(Cc3ccccc3)C2=O)cc1 (stereo not drawn),
160,CC(C)Cc1ccc(C(C)C(=O)CN2C(=O)c3ccccc3S2(=O)=O)cc1 (stereo not drawn),
4,O=C(CN1C(=O)c2ccccc2S1(=O)=O)OCc1ccccc1,
16,CC(C)Cc1ccc(C(C)C(=O)CN2C(=O)CC(CC(C)C)C2=O)cc1 (stereo not drawn),
